Where two headings read alike, the source gives them in different places.
Assays:
[1] = tested on: MCF-7 (ER+); test: Growth inhibition assay (tetrazolium blue), MCF-7 (ER+) breast cancer cells; assay type: cell-based; conditions: for inhibition at 1 µM: MCF7; for IC50: 7 days incubation, tetrazolium blue
Procedure: (§1) Growth inhibition assays were conducted using DIM, LT, and some of the novel compounds of the invention on several breast cancer cell lines. The cell lines studied were MCF-7 (ER^+), MDA-MB-231 (ER^−), and a tamoxifen-resistant strain of MCF-7 (ER^+). The growth assays were conducted according to the method of Tiwari et al. (Tiwari, R. K., J Natl Cancer Inst 86:126-131, 1994). For growth Inhibition Assay, cells were grown in multi-well culture plates. Experiments were performed in quadruplicate. MCF-7 (ER^+) cells were grown in special medium containing 5% animal serum that had been treated to remove endogenous estrogens. After the plates were incubated at 37° C. for 24 hours, to each well was added test compound at various concentrations, with or without the estrogen 17β-estradiol (E2). The cells were then incubated for 7 days, with medium and test solutions replaced every other day. On Day 8, after the medium was removed and replaced with fresh medium without test solutions, the tetrazolium blue test was performed to determine the percentage of viable cells (viable cells convert the colorless tetrazolium to formazan, which is blue). At 4 hours after tetrazolium blue was added, the reaction was stopped and the formazan concentration was measured by detection of light absorbance at 575 nm in an enzyme linked immunosorbent assay (ELISA) plate reader. The percent growth inhibition was determined by dividing the ELISA results for samples containing test compounds by the results for control samples. […] (ER^−) cells were maintained and tested under the same conditions as described above, except that no estrogen was added.

[2] = tested on: MDA-MB-231 (ER−); test: Growth inhibition assay (tetrazolium blue), MDA-MB-231 (ER−) breast cancer cells; assay type: cell-based, human; conditions: for IC50: no estrogen added
Procedure: as §1

[3] = tested on: Tamoxifen-resistant MCF-7; test: Growth inhibition assay (tetrazolium blue), tamoxifen-resistant MCF-7 cells; assay type: cell-based
Procedure: as §1

[4] = tested on: Ishikawa cells (endometrial carcinoma cells); test: Ishikawa assay (alkaline phosphatase induction), estrogenic and antiestrogenic activity; assay type: cell-based, human; conditions: AlkP induction, 72 hours; for Ishikawa Assay Anti-Estrogenic Activity at 10 μM: unit assumed
Procedure: Estrogenic and antiestrogenic activities were determined using the Ishikawa assay (Littlefield, B. A., Endocrinology 127: 2757-2762, 1990). The activities were measured at 10 μM concentrations of the test compounds. Human Ishikawa cells (endometrial carcinoma cells) are very sensitive to estrogens, and compounds with estrogenic activity induce alkaline phosphatase (AlkP) enzyme activity in these cells when administered at levels as low as 10^−12 M. Ishikawa cells were grown in growth medium supplemented with glutamine, sodium pyruvate, and 10% animal serum. At 24 hours before the experiment, the medium was replaced with medium free of phenol red and containing 5% animal serum that had been treated to remove endogenous estrogens. On Day 1, the cells were harvested and plated in fresh phenol red-free medium, and test solutions were added with or without the estrogen 17β-estradiol. After the treated cells were incubated for 72 hours, the AlkP assay was used to determine the estrogenic and antiestrogenic activity of the test compounds. Like the tetrazolium blue assay described above, this assay involves calorimetric detection using an ELISA plate reader, but here the indicator dye is yellow.

[5] = tested on: NIH-OVCAR-3; test: Growth inhibition assay (MTT), NIH-OVCAR-3 ovarian cancer cells; assay type: cell-based; conditions: Homo sapiens, OVCAR-3, 168 h; Day 7, MTT
Procedure: (§2) Assays were conducted on compound 74 (SR13668) to determine its growth inhibitory effect on two ovarian cancer cell lines, NIH-OVCAR-3 and SKOV-3. OVCAR-3 cells are routinely maintained in RPMI-1640 medium supplemented with 2 mM glutamine (GLN) and 10% fetal calf serum (FCS), and SKOV-3 cells in McCoy's 5A medium supplemented with 2 mM GLN and 10% FCS. Both cell lines are fed with fresh medium every other day and passaged every 6-7 days. To conduct the growth inhibition assay, cells from either cell line are seeded in 96-well plates at 2000 cells/well in 200 μL of medium. After cells are allowed to attach for 24 h, test compounds dissolved in dimethyl sulfoxide (DMSO) and further diluted with medium are added to each well in 10-μL aliquots. The final DMSO concentration is kept at 0.05%. Control wells receive vehicle only. Media and test solutions are replaced every other day. On Day 7, viable cells are measured with the MTT (tetrazolium blue) assay, using an MTT kit.

[6] = tested on: SKOV-3; test: Growth inhibition assay (MTT), SKOV-3 ovarian cancer cells; assay type: cell-based; conditions: Homo sapiens, SK-OV-3, 168 h; Day 7, MTT
Procedure: as §2

[7] = tested on: MDA-MB-231 human carcinoma cells; test: Boyden Chamber Invasion Assay; assay type: cell-based; conditions: 5 μM, 16 h end-point
Procedure: MDA-MB-231 human carcinoma cells was used for this Boyden Chamber Invasion Assay (Meng et al. (2000) J. Mol. Med. 78, 155-165; Meng et al. (2000) Breast Cancer Res. Treat. 63, 147-152). Briefly, to each well of a 24-well Biocoat invasion chamber plate, 0.6 mL of appropriate medium containing 10% FCSH 6 μg/ml Fibronectin is added, followed by gentle placement of a CCI in each well. To each CCI is added freshly harvested cells suspended in 200 μL of medium containing either the test compound or vehicle alone. The preparations are incubated at 37° C. for 16 h, and then the CCI is removed from each well, fixed for 10 min with 1 ml of 3.7% paraformaldehyde in PBS, and stained for 10 min in 1 mL of Wright-Giemsa stain solution. The stained CCI is placed on a glass microscope slide and the upper surface cells are carefully removed by scraping with a cotton swab. The cells on the lower surface are counted in a bright field microscope. The inhibitory effect of a test compound is calculated by dividing the number of cells in a treated preparation by that of the vehicle control and expressed as a percentage.

[8] = tested on: MDA-MB-231 human carcinoma cells; test: Parallel cell growth inhibition assay to the invasion study; assay type: cell-based; conditions: 16 h end-point
[9] = tested on: MCF-7 breast cancer xenografts; test: ER+ MCF-7 breast cancer xenografts in nude mice; assay type: in vivo, female Balb/c nude mice; conditions: oral gavage daily, MCF-7 xenograft
Procedure: To study the in vivo activity of novel compound 74 against estrogen-dependent breast cancer, the compound was administered to nude mice that had been implanted with […] MCF-7 breast cancer cells. To start the experiment, female Balb/c nude mice were implanted subcutaneously (s.c.) with estrogen pellets two days prior to inoculation of cancer cells, for stimulation of cell growth. MCF-7 cells were then implanted s.c. in the flanks, using an inoculum of 5×10^6 cells in a medium-Matrigel mixture (1:1, v/v). When the mean tumor volume reached approximately 100 mm^3, the test compound in 0.5% hydroxypropylcellulose in sterile saline solution (or vehicle alone for controls) was administered orally by gavage daily. There were 7 mice in the experimental and control groups. Mice were examined daily for tumor growth, and tumors and body weight were measured twice weekly. The tumor volume is 4/3πr1^2r2, where r1 and r2 are the short radius and long radius, respectively. On Day 27, all the mice were sacrificed, and the major organs examined by a pathologist.

[10] = tested on: MDA-MB-231 human breast cancer xenografts; test: (ER−) MDA-MB-231 breast cancer xenografts in nude mice; assay type: in vivo, female Balb/c nude mice; conditions: 10, 30, and 100 mg/kg daily oral gavage, MDA-MB-231 xenograft
Procedure: As a further test of in vivo efficacy against estrogen-independent breast cancer, the novel compound 74 was administered to nude mice that had been implanted with (ER^−) MDA-MB-231 human breast cancer xenografts. To start, female Balb/c nude mice were implanted subcutaneously (s.c.) with MDA-MB-231 cells, using an inoculum of 5×10^6 cells in a medium-Matrigel mixture (1:1, v/v). When the mean tumor volume reached approximately 70 mm^3, compound was administered daily at three dose levels (10, 30, and 100 mg/kg) via oral gavage. The methods used in the study were essentially the similar to those described in Example 29 herein.

[11] = tested on: SKOV-3 human ovarian cancer xenografts; test: SKOV-3 human ovarian cancer xenografts in nude mice; assay type: in vivo, female Balb/c nude mice; conditions: 30 mg/kg orally daily from Day 0, SKOV-3 xenograft
Procedure: To start, female Balb/c nude mice were implanted subcutaneously (s.c.) with SKOV-3 cells in the flanks, using an inoculum of 5×10^6 cells in a medium-Matrigel mixture (1:1, v/v), and compound 74 (30 mg/kg) was orally administered daily via gavage from Day 0. Tumor volume and body weight were measured twice weekly.

[12] = tested on: LNCaP; test: Growth inhibition assay (MTT), LNCaP prostate cancer cells; assay type: cell-based; conditions: Day 7, MTT
Procedure: (§3) Assays were conducted on compound 46 (SR13654) to determine its growth inhibitory effect on three prostate cancer cell lines, LNCaP, DU-145 and PC-3. The methods were described briefly herein. LNCaP and PC-3 cells will be maintained in […] medium, and DU-145 cells in Eaglets minimal essential medium (MEM) medium supplemented with nonessential amino acids, 2 mM glutamine and 1 mM pyruvate. All media will contain 10% fetal bovine serum (FCS). To screen compounds for their effect on cell proliferation, cells are seeded in 96-well plates at 2000 cells/well in 200 μL of medium. After cells are allowed to attach for 24 h, test compound is added to each well in 10 μL aliquots and control wells receive vehicle only. Medium and test solutions are replaced every other day. On Day 7, viable cells are measured with the MTT assay, using the protocol provided by the manufacturer (Promega, Madison, Wis.).

[13] = tested on: DU-145; test: Growth inhibition assay (MTT), DU-145 prostate cancer cells; assay type: cell-based; conditions: Day 7, MTT
Procedure: as §3

[14] = tested on: PC-3; test: Growth inhibition assay (MTT), PC-3 prostate cancer cells; assay type: cell-based; conditions: Day 7, MTT
Procedure: as §3

| SMILES | inhibition at 1 µM ([1]; Homo sapiens) | IC50 ([1]; Homo sapiens, MCF7, 168 h) | inhibition at 10 µM ([2]; Homo sapiens, MDA-MB-231) | IC50 ([2]; Homo sapiens, MDA-MB-231) | IC50 ([3]; Tamoxifen-resistant MCF7) | Ishikawa Assay Estrogenic Activity at 10 μM [4] | Ishikawa Assay Anti-Estrogenic Activity at 10 μM [4] | MCF-7 (ER+) % Growth Inhibition at 1 μM [1] | IC50 [1] | MDA-MB-231 (ER−) % Growth Inhibition at 10 μM [2] | IC50 [2] | IC50 [3] | also measured |
| --- | --- | --- | --- | --- | --- | --- | --- | --- | --- | --- | --- | --- | --- |
| CCOC(=O)c1ccc2[nH]c3c(OC)c4[nH]c5ccc(C(=O)OCC)cc5c4cc3c2c1 [Compound 74, 2,10-Dicarbethoxy-6-methoxy-5,7-dihydro-indolo[2,3-b]carbazole] | 100% | 200 nM | 69% | 7800 nM | 930 nM | 0 | 80% |  |  |  |  |  | IC50 [5]: 5100 nM; IC50 [6]: 4000 nM; reduction in the invasive capacity of MDA-MB-231 cells [7]: 90%; inhibition at 5 µM [8]: 22%; body weights of the treated mice [9]: unaffected; tumor volume versus control mice ([9]; FIG. 1): less than half of those in the control mice; body weights of the treated mice [10]: unaffected; tumor volume versus control mice ([10]; FIG. 2): less than half of those in the control mice; body weights of the treated mice [11]: unaffected; tumor volume versus control mice ([11]; FIG. 3): significantly less than those in the control mice |
| CCOC(=O)Oc1c2[nH]c3ccc(C(=O)OCC)cc3c2cc2c1[nH]c1ccc(C(=O)OCC)cc12 [Compound 63, 2,10-Dicarbethoxy-6-ethoxycarbonyloxy-5,7-dihydro-indolo[2,3-b]carbazole] | 66% | 1400 nM | 94% | 2000 nM | 3000 nM | 0 | 100% |  |  |  |  |  |  |
| c1ccc2c(Cc3c[nH]c4ccccc34)c[nH]c2c1 [DIM, 3,3′-diindolylmethane, reference compound] |  |  |  |  |  |  |  | 3% | 5500 nM | 20% | 31000 nM | > 10000 nM |  |
| CCOC(=O)c1ccc2[nH]c(Cc3[nH]c4ccc(C(=O)OCC)cc4c3C)c(C)c2c1 [Compound 46, 5,5′-Dicarbethoxy-3,3′-dimethyl-2,2′-diindolylmethane] |  |  |  |  |  | 0 | 94% | 100% | 31 nM | 81% | 6900 nM | 460 nM | IC50 [12]: 4700 nM; IC50 [13]: 480 nM; IC50 [14]: 200 nM |
| c1ccc2c(Cc3[nH]c4ccccc4c3Cc3c[nH]c4ccccc34)c[nH]c2c1 [LT, 2-(indol-3-ylmethyl) 3,3′-diindolyl-methane, reference compound] |  |  |  |  |  | 0 | 100% | 19% | 1800 nM | 34% | 13000 nM | 600 nM |  |
| CCOC(=O)Oc1c2[nH]c3ccccc3c2cc2c1[nH]c1ccccc12 [Compound 58, 6-Ethoxycarbonyloxy-5,7-dihydro-indolo[2,3-b]carbazole] | 100% | 18 nM | 97% | 2100 nM | 56 nM | 0 | 100% |  |  |  |  |  |  |
